{"source": "paper PMC10002984", "about": "“Dual PTP1B/TC-PTP Inhibitors: Biological Evaluation of 3-(Hydroxymethyl)cinnoline-4(1H)-Ones” (International Journal of Molecular Sciences, 2023)", "key": {"[1]": {"system": "PTP1B", "design": "method as in doi:10.1134/S0022093018040038", "conditions": "cited from earlier work"}, "[2]": {"system": "diet-induced obese rats", "design": "method as in doi:10.1134/S0022093022060187", "conditions": "cited from earlier work"}, "[3]": {"system": "rat hypothalamic neurons", "design": "method as in doi:10.1134/S0022093018040038", "conditions": "cited from earlier work"}, "[4]": {"system": "male rats with HFD-induced obesity", "test": "Blood glucose, insulin and leptin levels and insulin resistance index in obese rats", "type": "in vivo, male Wistar rats", "experimental": "(§1) Further, six groups were formed: control (Con, n = 10), obesity (Ob, n = 10), obese rats with five-day treatment with compounds 1 (Ob + 1, n = 5), 2 (Ob + 2, n = 5), 3 (Ob + 3, n = 10), and 4 (Ob + 4, n = 10). All compounds were administered in DMSO (300 µL) at a daily dose of 7 mg/kg (1 and 2), 8 mg/kg (3), and 10 mg/kg (4) (i.p.), based on the results of the preliminary experiments. The used doses of compounds 1–4, in terms of the number of moles of each compound per kg of animal body weight, were equivalent. Control and obese rats received DMSO in the same volumes (300 µL), instead of the tested compounds. During the five days of the experiment, all animals were transferred to standard food and had free access to food and drinking water. […] The test was carried out on the morning of the next day after the last (fifth) injection of the compounds or DMSO, after a 10 h fast. The rest of the animals (n = 5 in each group) were anesthetized and decapitated on the last day of the experiment. The blood and liver samples were taken to measure blood glucose and hormone levels and gene expression in the liver.\nThe glucose levels in the blood obtained from the tail vein were measured using a glucometer (Life Scan Johnson & Johnson, Denmark) and the test strips “One Touch Ultra” (USA). The levels of insulin and leptin in rat serum were estimated with the “Rat Insulin ELISA” (Mercodia AB, Uppsala, Sweden) and “ELISA for Leptin, Rat” (Cloud-Clone Corporation, Houston, TX, USA) kits. The GTT was carried out using a single injection of glucose (2 g/kg, i.p.) after 10 h of fasting, as described earlier. The blood glucose levels were measured before (0 min) and 15, 30, 60, and 120 min after the glucose load."}, "[5]": {"molecular_target": "T1, human recombinant TC-PTP protein (Homo sapiens, UniProt P17706)", "T1 construct": "purchased Sigma-Aldrich SRP0218", "T1 sequence (P17706 1-415)": "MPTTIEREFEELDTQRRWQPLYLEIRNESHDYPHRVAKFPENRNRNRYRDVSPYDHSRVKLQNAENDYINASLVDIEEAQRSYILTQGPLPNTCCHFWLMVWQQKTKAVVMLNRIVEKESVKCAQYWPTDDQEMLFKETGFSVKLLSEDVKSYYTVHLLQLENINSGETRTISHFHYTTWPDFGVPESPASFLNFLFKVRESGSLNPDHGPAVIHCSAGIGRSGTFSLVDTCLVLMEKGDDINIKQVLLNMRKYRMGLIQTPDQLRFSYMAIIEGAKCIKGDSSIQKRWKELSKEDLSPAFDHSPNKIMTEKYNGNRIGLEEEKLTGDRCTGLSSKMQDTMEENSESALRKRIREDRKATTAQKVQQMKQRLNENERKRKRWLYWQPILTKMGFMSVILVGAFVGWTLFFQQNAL", "test": "Phosphatase activity assay with DiFMUP, TC-PTP inhibition", "type": "biochemical", "conditions": "DiFMUP 35 µM, 80 ng/mL TC-PTP, compounds 0.1–80 μM; M ± SEM (n = 24); read-out: IC50 for the inhibitory effect on TC-PTP activity", "experimental": "(§2) The measurement of the activity of the phosphatases PTP1B and TC-PTP and their inhibition was carried out using 6,8-difluoro-4methylumbelliferyl phosphate (DiFMUP), as previously described. The stock solution of recombinant human PTP1B protein (#ab51277, Abcam, Cambridge, UK), at a concentration of 1 µg/µL, was prepared in 25 mM Tris–HCl (pH 7.5), 20% glycerol, 2 mM β-mercaptoethanol, 1 mm EDTA, and 1 mM DTT, and stored at −20 °C. Active human recombinant TC-PTP protein was purchased from Sigma-Aldrich (#SRP0218, Saint Louis, MO, USA) as the aqueous buffer solution at a concentration of 2.9 mg/mL, and aliquots were stored at −80 °C. The fluorogenic substrate DiFMUP (#D6567, Molecular Probes, Thermo Fisher Scientific, Waltham, MA, USA) was dissolved at a concentration of 10 mM in N,N-dimethylformamide and stored in aliquots at −20 °C. The 6,8-difluoro-7-hydroxy-4-methylcoumarin (DiFMU, #D6566, Molecular Probes, Thermo Fisher Scientific, Waltham, MA, USA) was used as a reference fluorescent standard. For the IC50 determination, the assay was carried out in black flat bottom 96-well plates using a reaction volume of 100 µL. The phosphatases (PTP1B or TC-PTP) were preincubated with the tested compounds (0.1–80 µM) in 50 mM HEPES (pH 6.9), 100 mM NaCl, 1 mM EDTA, 2 mM DTT, 0.1 mg/mL BSA for 5 min at 37 °C. The following concentrations of the compounds were studied: 0.1, 0.2, 0.5, 1, 2, 5, 10, 20, 40, and 80 μM. The reactions were initiated by the addition of the fluorogenic substrate DiFMUP and diluted in the assay buffer. Progress curves for hydrolysis reaction were obtained with 25 µM of DiFMUP for 80 ng/mL PTP1B, and 35 µM of DiFMUP for 80 ng/mL TC-PTP. Fluorescence excitation of hydrolyzed DiFMUP and the fluorescent standard DiFMU was monitored at 355 nm and emission was detected at 460 nm for 6–10 min at 30 s intervals in a Fluoroskan Ascent FL microplate reader (Thermo Electron Corporation, Vantaa, Finland). Initial velocities of the reactions were used to calculate the IC50 values using GraphPad Prism.\n(§3) The data on food intake, body weight, and biochemical parameters in rats, as well as the PCR data, were analyzed using the IBM SPSS Statistics 22 software (“IBM”, Armonk, NY, USA), and the results are presented as mean ± standard error of the mean (M ± SEM). All differences are considered significant at p < 0.05. The calculation of the IC50 values of the studied inhibitors for the initial velocities of enzymatic reactions (PTP1B, TC-PTP) was carried out using the nonlinear regression analysis with GraphPad Prism 8 (“GraphPad Software, Inc.”, Boston, MA, USA). The statistical analysis was carried out using the Wilcoxon test for pairwise comparison and Dunn’s test for multiple comparisons."}, "[6]": {"molecular_target": "T2, recombinant human PTP1B protein (Homo sapiens, UniProt P18031)", "T2 construct": "purchased Abcam ab51277", "T2 sequence (P18031 1-321 limits assumed)": "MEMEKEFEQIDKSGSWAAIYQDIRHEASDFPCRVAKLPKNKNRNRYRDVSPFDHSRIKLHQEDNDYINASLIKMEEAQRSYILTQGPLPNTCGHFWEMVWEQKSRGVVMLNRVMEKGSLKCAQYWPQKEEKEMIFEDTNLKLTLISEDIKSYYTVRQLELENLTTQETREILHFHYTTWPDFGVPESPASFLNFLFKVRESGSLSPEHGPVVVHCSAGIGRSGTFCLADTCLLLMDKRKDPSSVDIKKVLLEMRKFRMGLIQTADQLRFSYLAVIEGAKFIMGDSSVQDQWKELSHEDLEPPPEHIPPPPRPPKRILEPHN", "test": "Phosphatase activity assay with DiFMUP, PTP1B inhibition", "type": "biochemical", "experimental": "as §2, §3"}, "[7]": {"system": "Shp1 gene", "test": "Gene expression in the liver of obese rats (qPCR), Shp1 gene", "type": "in vivo, rat", "conditions": "five-day treatment", "experimental": "as §1\nThe total RNA was isolated from the liver samples of rats using the “ExtractRNA Reagent” (Evrogen, Moscow, Russia), and the samples containing 1 μg of RNA were transcribed to cDNA using the random oligodeoxynucleotide primers and the “MMLV RT kit” (Evrogen, Russia). The amplification procedure was carried out in the mixture containing 10 ng of reverse transcribed product, 0.4 μM of the forward and reverse primers, and the “qPCRmix-HS SYBR + LowROX kit” (Evrogen, Russia). The amplified signals were detected using the “Applied Biosystems® 7500 Real-Time PCR System” (Life Technologies, Carlsbad, CA, USA, Thermo Fisher Scientific Inc., USA). The primers that were used to assess the expression of genes encoding the phosphatase PTP1B, TC-PTP, and SHP1 and the insulin and leptin receptors are presented in Table 4. The obtained data were calculated with the delta–delta Ct method and expressed as a fold expression, relative to the corresponding control. The expression of the gene encoding 18S RNA was used as an endogenous control."}, "[8]": {"system": "PTP1B and TC-PTP in the hypothalamic arcuate nucleus", "design": "method as in PMID 30525586", "conditions": "administered to mice; cited from earlier work"}, "[9]": {"conditions": "blood, after five-day i.p. treatment, 7 mg/kg (1, 2), 8 mg/kg (3), 10 mg/kg (4), M ± SEM, n = 5"}, "[10]": {"conditions": "blood, before treatment (baseline), M ± SEM, n = 5"}}, "note": "Marks after values point to notes of the source that are not given here."}
{"smiles": "CCOC(=O)c1ccc2[nH]nc(CO)c(=O)c2c1", "note": "[PI4, ethyl 3-(hydroxymethyl)-4-oxo-1,4-dihydrocinnoline-6-carboxylate]", "values": [{"measurement": "activity towards PTP1B", "setting": "[1]", "value": "inhibitory activity"}, {"measurement": "body and fat weights", "setting": "[2]", "value": "reduced"}, {"measurement": "food intake", "setting": "[2]", "value": "suppressed"}, {"measurement": "effect on components of the insulin and leptin signaling pathways (Akt, STAT3)", "setting": "[3]", "value": "stimulating effect"}]}
{"smiles": "O=c1c(CO)n[nH]c2ccc(F)cc12", "note": "[Compound 2]", "values": [{"measurement": "Glucose, After", "setting": "[4]; [9]", "value": "5.68 ± 0.09 ^a mM"}, {"measurement": "Insulin, After", "setting": "[4]; [9]", "value": "1.19 ± 0.13 ^a,c ng/mL"}, {"measurement": "Leptin, After", "setting": "[4]; [9]", "value": "2.18 ± 0.22 ^a,c ng/mL"}, {"measurement": "Glucose, Before", "setting": "[4]; [10]", "value": "5.82 ± 0.22 ^a mM"}, {"measurement": "Insulin, Before", "setting": "[4]; [10]", "value": "1.65 ± 0.17 ^a ng/mL"}, {"measurement": "Leptin, Before", "setting": "[4]; [10]", "value": "3.27 ± 0.38 ^a ng/mL"}, {"measurement": "IR (insulin resistance index), After", "setting": "[4]; product of blood glucose and insulin concentrations, after five-day i.p. treatment, 7 mg/kg (1, 2), 8 mg/kg (3), 10 mg/kg (4)", "value": "6.79 ± 0.76 ^a arb.Units"}, {"measurement": "IR (insulin resistance index), Before", "setting": "[4]; product of blood glucose and insulin concentrations, before treatment (baseline)", "value": "9.68 ± 1.27 ^a arb.Units"}, {"measurement": "IC50", "setting": "[5]", "value": "42.8 ± 9.93", "unit": "µM"}, {"measurement": "IC50", "setting": "[6]; DiFMUP 25 µM, 80 ng/mL PTP1B, compounds 0.1–80 μM, M ± SEM (n = 24), read-out: IC50 for the inhibitory effect on PTP1B activity", "value": "6.01 ± 0.59", "unit": "µM"}, {"measurement": "selectivity for PTP1B compared to that for TC-PTP", "setting": "[6]; from IC50 values of Table 1", "value": "5–7 fold"}, {"measurement": "expression of the Shp1 gene in the liver", "setting": "[7]", "value": "increased"}]}
{"smiles": "CC1=C(O)C(=O)C=C2C1=CC=C1[C@@]2(C)CC[C@@]2(C)[C@@H]3C[C@](C)(C(=O)O)CC[C@]3(C)CC[C@]12C", "note": "[Celastrol]", "values": [{"measurement": "activity of both phosphatases (PTP1B, TC-PTP) in the hypothalamic arcuate nucleus", "setting": "[8]", "value": "reduced"}, {"measurement": "food intake and body weights", "setting": "[8]", "value": "significantly reducing"}]}
